The text below walks through data of PubChem BioAssay (NCI).

Where “and” joins values, the source holds several entries; their conditions need not be identical. Identical values can stand only once.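 How tested: cells in 96-well plates exposed to compound for 48 hours at five concentrations. GI50 = concentration required for 50% inhibition of growth. TGI: concentration producing complete growth inhibition.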

Test systems include SW-620 colon; RPMI-8226 leukemia; RXF 393 renal; 786-0 renal; NCI-H226 lung; LOX IMVI melanoma; UO-31 renal; IGROV1 ovarian; HCT-15 colon; HS 578T breast.
Holding throughout (assay): NCI anticancer screen, dose series, 48 h

Consider `C/C(=N\NC(=S)N1CCC(C2CCN(C(=S)N/N=C(\C)c3ccccn3)CC2)CC1)c1ccccn1`, for which the TGI in the test with SW-620 colon, in the test on RPMI-8226 leukemia, in the test with RXF 393 renal, in the test on 786-0 renal, in the test on NCI-H226 lung and in the test on LOX IMVI melanoma was more than 100 µM in each case. The TGI in the test on UO-31 renal and with IGROV1 ovarian was more than 100 µM in each case.

As for `Nc1ncnc2c1ncn2Cc1ccc(C23CC4CC(CC(C4)C2)C3)c(O)c1`, the GI50 in the test on HCT-15 colon is 58.6 µM; with SW-620 colon, 48.7 µM; in the test with RXF 393 renal, 8.06 µM; with 786-0 renal, 25.6 µM; in the test on NCI-H226 lung, more than 100 µM; with LOX IMVI melanoma, 24.6 µM. In addition, the values for the GI50 with UO-31 renal, in the test with HS 578T breast and with IGROV1 ovarian were 90 µM, 10.7 µM and 27.2 µM, respectively. For the same compound, the TGI is more than 100 µM in the test with HCT-15 colon; more than 100 µM in the test on SW-620 colon; 39.7 µM in the test with RXF 393 renal; more than 100 µM in the test on 786-0 renal; more than 100 µM in the test with NCI-H226 lung; more than 100 µM with LOX IMVI melanoma. Besides, the TGI with UO-31 renal is more than 100 µM; with HS 578T breast, 69.7 µM; in the test with IGROV1 ovarian, more than 100 µM.

As to `CCCCCCN1C(=O)CN=C1Nc1ccc2cc3ccc(NC4=NCC(=O)N4CCCCCC)cc3nc2c1`, the GI50 in the test with SW-620 colon is 1.84 µM; in the test on RPMI-8226 leukemia it was 2.07 µM; with RXF 393 renal, 1.52 µM; with 786-0 renal, 1.56 µM; in the test on NCI-H226 lung, 2.48 µM; in the test on UO-31 renal, 1.24 µM. Also, the GI50 is 2.08 µM in the test with HS 578T breast and 1.85 µM with IGROV1 ovarian. Moreover, the TGI in the test with SW-620 colon was 3.7 µM; in the test on RPMI-8226 leukemia, 5.52 µM; in the test with RXF 393 renal it was 3.22 µM; in the test with 786-0 renal, 2.95 µM; in the test with NCI-H226 lung it was 7.25 µM; in the test on UO-31 renal it was 2.54 µM. In addition, the TGI came to 5.66 µM in the test on HS 578T breast and 4.28 µM in the test with IGROV1 ovarian.

Regarding `CC[C@@]1(O)C(=O)OCc2c1cc1n(c2=O)Cc2cc3c(NC(C)=O)c(O)ccc3nc2-1`, the GI50 with HCT-15 colon is 18 µM; in the test with SW-620 colon, 1.94 µM; in the test with RPMI-8226 leukemia it was 4.58 µM; in the test on RXF 393 renal, 2.34 µM; in the test on 786-0 renal, 0.373 µM; in the test with NCI-H226 lung, 2.98 µM. For the same compound, the GI50 is 0.497 µM in the test with LOX IMVI melanoma, 1.76 µM in the test on UO-31 renal and 6.27 µM with IGROV1 ovarian. For the same compound, the TGI was more than 100 µM with HCT-15 colon; more than 100 µM in the test on SW-620 colon; 56.8 µM in the test with RPMI-8226 leukemia; 20.2 µM with RXF 393 renal; 2.17 µM in the test with 786-0 renal; more than 20.3 µM in the test with NCI-H226 lung. Moreover, the TGI is 6.31 µM in the test on LOX IMVI melanoma, 16.2 µM in the test with UO-31 renal and more than 88.5 µM with IGROV1 ovarian.

For the compound `CCOc1cccnc1/C=N/NC(N)=S`, the GI50 with HCT-15 colon is 4.08 µM; in the test on SW-620 colon, 4.46 µM; with RPMI-8226 leukemia, 3.82 µM; in the test with 786-0 renal, 3.66 µM; with NCI-H226 lung, 3.6 µM; with LOX IMVI melanoma, 2.7 µM. For the same compound, the GI50 was 2.9 µM in the test with UO-31 renal, 52.3 µM with HS 578T breast and 5.01 µM in the test on IGROV1 ovarian. In addition, the TGI in the test on HCT-15 colon was more than 100 µM; in the test on SW-620 colon, more than 100 µM; in the test on RPMI-8226 leukemia, more than 100 µM; with 786-0 renal it was more than 100 µM; in the test with NCI-H226 lung, 83 µM; in the test on LOX IMVI melanoma it was 14 µM. For the same compound, the TGI in the test with UO-31 renal is 26.6 µM; in the test with HS 578T breast it was more than 100 µM; in the test on IGROV1 ovarian, more than 100 µM.

As for `O=C(Cc1nc2ccc([N+](=O)[O-])cc2[nH]c1=O)C(=O)Nc1cc(Cl)c(Cl)cc1Cl`, the TGI in the test with HCT-15 colon, in the test with SW-620 colon, in the test on RXF 393 renal, with 786-0 renal, with NCI-H226 lung and in the test with LOX IMVI melanoma was more than 100 µM throughout. The TGI in the test on UO-31 renal, with HS 578T breast and in the test with IGROV1 ovarian was more than 100 µM in each case.

Regarding `COc1cc(C2c3cc4c(cc3[C@@H](Nc3cccc(O)c3)C3COC(=O)[C@H]23)OCO4)cc(OC)c1O` (stereo not given in full), the TGI is 46.4 µM in the test on HCT-15 colon; 41 µM in the test on SW-620 colon; 9.31 µM in the test on RPMI-8226 leukemia; 9.23 µM in the test on RXF 393 renal; 5.36 µM with 786-0 renal; 0.902 µM and 4.04 µM with NCI-H226 lung. Besides, the TGI in the test with LOX IMVI melanoma turned out to be 7.3 µM; in the test on UO-31 renal, 7.4 µM; with IGROV1 ovarian, 30.4 µM. Moreover, the GI50 in the test on SW-620 colon is 0.77 µM; in the test on RPMI-8226 leukemia it was 0.45 µM; in the test on RXF 393 renal, 0.418 µM; in the test on 786-0 renal, 0.98 µM; with NCI-H226 lung it was 0.423 µM; in the test with LOX IMVI melanoma, 0.535 µM. Also, in the test on UO-31 renal, the GI50 was 0.779 µM.

Turning to `Cn1c(COC(=O)NCCN2CCOCC2)nc2c(N3CCOCC3)nc(-c3ccccc3)nc21`, the GI50 in the test with HCT-15 colon is 0.46 µM; in the test with SW-620 colon it was 0.444 µM; in the test with RXF 393 renal, 0.797 µM; with 786-0 renal, 0.843 µM; in the test with NCI-H226 lung it was 4.38 µM; with LOX IMVI melanoma it was 0.256 µM. Also, the GI50 in the test on UO-31 renal was 0.838 µM; in the test with HS 578T breast, 1.49 µM; with IGROV1 ovarian, 0.656 µM. For the same compound, the TGI came out at 1.87 µM in the test with HCT-15 colon; 1.78 µM in the test on SW-620 colon; 2.22 µM in the test with RXF 393 renal; 2.23 µM in the test on 786-0 renal; 20.3 µM in the test on NCI-H226 lung; 1.1 µM in the test with LOX IMVI melanoma. Moreover, the TGI with UO-31 renal is 2.18 µM; with HS 578T breast it was 5.38 µM; in the test with IGROV1 ovarian, 2.15 µM.

`O=C1c2cccc3cccc(c23)C(=O)N1CCCN1CCN(CCCN2C(=O)c3cccc4cccc(c34)C2=O)CC1`: the TGI in the test with HCT-15 colon, with SW-620 colon, with RPMI-8226 leukemia, in the test on RXF 393 renal, with 786-0 renal and in the test on NCI-H226 lung was more than 100 µM in each case. In addition, the TGI in the test with LOX IMVI melanoma, with UO-31 renal and in the test with IGROV1 ovarian was more than 100 µM each time.

For `COc1ccc(-n2nc(C)c3c2N(C)C2(C)C[C@@H]4C3(C)[C@@H]3CC4(C2)N(C)c2c(c(C)nn2-c2ccc(OC)cc2)[C@H]3C)cc1` (stereo not given in full), the GI50 is 2.92 µM in the test on RXF 393 renal; 5.47 µM in the test on 786-0 renal; 5.34 µM with NCI-H226 lung; 4.27 µM with HS 578T breast; 19.5 µM with IGROV1 ovarian. Moreover, the TGI was 13.3 µM with RXF 393 renal; 29.6 µM with 786-0 renal; more than 100 µM in the test on NCI-H226 lung; 98 µM with HS 578T breast; more than 100 µM in the test on IGROV1 ovarian.
